Compound	melting point
Cc1cccc(-c2nc3ccc(Cl)nn3c2-c2ccnc(Nc3ccccc3C)c2)c1 [Example Compound 3-2, 4-[6-chloro-2-(3-methylphenyl)imidazo[1,2-b]pyridazin-3-yl]-N-(2-methylphenyl)pyridin-2-amine]	191 to 192 °C
Cc1cccc(-c2nc3cccnn3c2-c2ccnc(NC3CCCCC3)c2)c1 [Example Compound 6-1, N-cyclohexyl-4-[2-(3-methylphenyl)imidazo[1,2-b]pyridazin-3-yl]pyridin-2-amine]	169 to 170 °C
Cc1cccc(-c2nc3cccnn3c2-c2ccnc(NC3CCCC3)c2)c1 [Example Compound 6-2, N-cyclopentyl-4-[2-(3-methylphenyl)imidazo[1,2-b]pyridazin-3-yl]pyridin-2-amine]	130 to 131 °C
Cc1cccc(-c2nc3cccnn3c2-c2ccnc(NC3CCC3)c2)c1 [Example Compound 6-3, N-cyclobutyl-4-[2-(3-methylphenyl)imidazo[1,2-b]pyridazin-3-yl]pyridin-2-amine]	152 to 153 °C
Cc1cccc(-c2nc3cccnn3c2-c2ccnc(NC3CC3)c2)c1 [Example Compound 6-4, N-cyclopropyl-4-[2-(3-methylphenyl)imidazo[1,2-b]pyridazin-3-yl]pyridin-2-amine]	202 to 203 °C
Cc1cccc(-c2nc3cccnn3c2-c2ccnc(NCCO)c2)c1 [Example Compound 6-5, 2-({4-[2-(3-methylphenyl)imidazo[1,2-b]pyridazin-3-yl]pyridin-2-yl}amino)ethanol]	176 to 177 °C
COc1ccccc1Nc1cc(-c2c(-c3cccc(C)c3)nc3cccnn23)ccn1 [Example Compound 6-6, N-(2-methoxyphenyl)-4-[2-(3-methylphenyl)imidazo[1,2-b]pyridazin-3-yl]pyridin-2-amine]	157 to 158 °C
Cc1cccc(-c2nc3cccnn3c2-c2ccnc(Nc3cccc(C)c3C)c2)c1 [Example Compound 6-7, N-(2,3-dimethylphenyl)-4-[2-(3-methylphenyl)imidazo[1,2-b]pyridazin-3-yl]pyridin-2-amine]	187 to 188 °C
Cc1ccc(Nc2cc(-c3c(-c4cccc(C)c4)nc4cccnn34)ccn2)cc1 [Example Compound 6-8, N-(4-methylphenyl)-4-[2-(3-methylphenyl)imidazo[1,2-b]pyridazin-3-yl]pyridin-2-amine]	213 to 214 °C
Cc1cccc(Nc2cc(-c3c(-c4cccc(C)c4)nc4cccnn34)ccn2)c1 [Example Compound 6-9, N-(3-methylphenyl)-4-[2-(3-methylphenyl)imidazo[1,2-b]pyridazin-3-yl]pyridin-2-amine]	195 to 196 °C
Cc1cccc(-c2nc3cccnn3c2-c2ccnc(NC3CCCc4ccccc43)c2)c1 (stereo not drawn) [Example Compound 6-12, 4-[2-(3-methylphenyl)imidazo[1,2-b]pyridazin-3-yl]-N-(1,2,3,4-tetrahydtonaphthalen-1-yl)pyridin-2-amine]	195 to 196 °C
COCCNc1cc(-c2c(-c3cccc(C)c3)nc3cccnn23)ccn1 [Example Compound 6-13, N-(2-methoxyethyl)-4-[2-(3-methylphenyl)imidazo[1,2-b]pyridazin-3-yl]pyridin-2-amine]	99 to 100 °C
Cc1cccc(-c2nc3cccnn3c2-c2ccnc(NCCN3CCCCC3)c2)c1 [Example Compound 6-14, 4-[2-(3-methylphenyl)imidazo[1,2-b]pyridazin-3-yl]-N-[2-(piperidin-1-yl)ethyl]pyridin-2-amine]	143 to 144 °C
Cc1cccc(-c2nc3cccnn3c2-c2ccnc(NCc3cccs3)c2)c1 [Example Compound 6-15, 4-[2-(3-methylphenyl)imidazo[1,2-b]pyridazin-3-yl]-N-(2-thienylmethyl)pyridin-2-amine]	185 to 186 °C
Cc1cccc(-c2nc3cccnn3c2-c2ccnc(NCC3CCCO3)c2)c1 (stereo not drawn) [Example Compound 6-16, 4-[2-(3-methylphenyl)imidazo[1,2-b]pyridazin-3-yl]-N-(tetrahydrofuran-2-ylmethyl)pyridin-2-amine]	137 to 138 °C
Cc1cccc(-c2nc3cccnn3c2-c2ccnc(NCc3ccco3)c2)c1 [Example Compound 6-17, N-(2-furylmethyl)-4-[2-(3-methylphenyl)imidazo[1,2-b]pyridazin-3-yl]pyridin-2-amine]	150 to 151 °C
CCN(CC)CCNc1cc(-c2c(-c3cccc(C)c3)nc3cccnn23)ccn1 [Example Compound 6-19, N,N-diethyl-N′-{4-[2-(3-methylphenyl)imidazo[1,2-b]pyridazin-3-yl]pyridin-2-yl}ethane-1,2-diamine]	97 to 98 °C
Cc1cccc(-c2nc3cccnn3c2-c2ccnc(N[C@@H](C)c3ccccc3)c2)c1 [Example Compound 6-21, 4-[2-(3-methylphenyl)imidazo[1,2-b]pyridazin-3-yl]-N-[(1S)-1-phenylethyl]pyridin-2-amine]	154 to 155 °C
Cc1cccc(-c2nc3cccnn3c2-c2ccnc(N[C@H](C)c3ccccc3)c2)c1 [Example Compound 6-22, 4-[2-(3-methylphenyl)imidazo[1,2-b]pyridazin-3-yl]-N-[(1R)-1-phenylethyl]pyridin-2-amine]	154 to 155 °C
Cc1cccc(-c2nc3cccnn3c2-c2ccnc(NCc3ccccc3)c2)c1 [Example Compound 6-23, N-benzyl-4-[2-(3-methylphenyl)imidazo[1,2-b]pyridazin-3-yl]pyridin-2-amine]	193 to 194 °C
CCCCNc1cc(-c2c(-c3cccc(C)c3)nc3cccnn23)ccn1 [Example Compound 6-24, N-butyl-4-[2-(3-methylphenyl)imidazo[1,2-b]pyridazin-3-yl]pyridin-2-amine]	128 to 129 °C
CCCNc1cc(-c2c(-c3cccc(C)c3)nc3cccnn23)ccn1 [Example Compound 6-25, 4-[2-(3-methylphenyl)imidazo[1,2-b]pyridazin-3-yl]-N-propylpyridin-2-amine]	128 to 129 °C
CCNc1cc(-c2c(-c3cccc(C)c3)nc3cccnn23)ccn1 [Example Compound 6-26, N-ethyl-4-[2-(3-methylphenyl)imidazo[1,2-b]pyridazin-3-yl]pyridin-2-amine]	151 to 153 °C
Nc1cc(-c2c(-c3cccc(Cl)c3)nc3ccc(Cl)nn23)ccn1 [Example Compound 13-1, 4-[6-chloro-2-(3-chlorophenyl)imidazo[1,2-b]pyridazin-3-yl]pyridin-2-amine]	268 to 269 °C
Nc1cc(-c2c(-c3ccc(Cl)cc3)nc3cccnn23)ccn1 [Example Compound 16-2, 4-[2-(4-chlorophenyl)imidazo[1,2-b]pyridazin-3-yl]pyridin-2-amine]	252 to 253 °C
Cc1cccc(-c2nc3cccnn3c2-c2ccnc(NC(=O)c3ccc(Cl)cc3)c2)c1 [Example Compound 20-3, 4-chloro-N-{4-[2-(3-methylphenyl)imidazo[1,2-b]pyridazin-3-yl]pyridin-2-yl}benzamide]	211 to 212 °C
Cc1cccc(-c2nc3cccnn3c2-c2ccnc(NC(=O)c3cccc(F)c3)c2)c1 [Example Compound 20-4, 3-fluoro-N-{4-[2-(3-methylphenyl)imidazo[1,2-b]pyridazin-3-yl]pyridin-2-yl}benzamide]	204 to 205 °C

Reference: patent US20080167314A1, “Condensed Imidazole Compound And Use Thereof” (priority 2004, published 2008)
